Experimental data reported in publication PMC4310094, “FXR antagonism of NSAIDs contributes to drug-induced liver injury identified by systems pharmacology approach” (Scientific Reports, 2015).

Tests used:
[1] = tested on: STAT3; test: Western blot of STAT3 phosphorylation in HepG2 cells; format: cell-based; conditions: Figure 6A
Experimental: (§1) In subsequent experiments, we further investigated whether NSAIDs could induce STAT3 activation and suppress the expression of caspase9. […] The phosphorylated STAT3 was determined by western blot analysis. […] For STAT3 phosphorylation and caspase9 expression analysis, HepG2 cells were seeded in 6-well plates and then treated with varied compounds in serum-free DMEM media. After 24 h incubation, cells were washed twice with ice-cold phosphate buffered saline (PBS) and lysed in RIPA buffer including 5 mM NaF, 1 mM PMSF, 2 mM NaVO4 and protease inhibitor cocktail. Lysates were then centrifuged at 10,000 rpm for 10 min at 4°and the protein concentrations were determined by BCA assay. Whole cell extracts was resolved on 10% SDS-PAGE and transferred to polyvinylidene fluoride (PVDF) membrane. The membrane was blotted with antibodies against p-STAT3, total-STAT3, caspase9 and GAPDH, and then examined by ECL detection system according to the manufacturer's instructions (Amersham Pharmacia Biotech).

[2] = tested on: caspase9; test: Western blot of caspase9 in HepG2 cells; format: cell-based; conditions: Figure 6B
Experimental: as §1

[3] = molecular target: T1, Farnesoid X Receptor (FXR) (Homo sapiens, UniProt Q96RI1); test: Yeast two-hybrid assay, hFXR agonist testing (FXR-LBD/SRC1 interaction, α-galactosidase); format: cell-based; conditions: DMSO = 1
T1 construct: Human FXRα-LBD (amino acids 200–473); expressed in transfected cells; host or cells: yeast strain AH109
T1 sequence (Q96RI1 214-486): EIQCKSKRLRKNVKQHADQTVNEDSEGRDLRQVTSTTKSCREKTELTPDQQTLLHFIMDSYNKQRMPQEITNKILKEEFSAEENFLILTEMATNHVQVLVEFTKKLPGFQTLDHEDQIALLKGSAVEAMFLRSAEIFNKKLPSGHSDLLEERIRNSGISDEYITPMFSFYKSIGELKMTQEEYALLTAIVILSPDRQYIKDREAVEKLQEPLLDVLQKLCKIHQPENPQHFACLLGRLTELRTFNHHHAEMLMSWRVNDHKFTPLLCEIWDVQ
Excerpt: (§2) Yeast two-hybrid system is a powerful tool for identifying potential agonist or antagonist of nuclear receptor based on the protein-protein interaction between nuclear receptor and its transcriptional co-activator[34]. Based on the predicted results through our systems pharmacology approach, the yeast two-hybrid system was set up according to a previous study[35] to test whether NSAIDs can modulate the activation of FXR. A series of NSAIDs with diverse chemical structures were collected and experimentally evaluated for their effects on the interaction between FXR and its co-activator SRC1. […] The previous studies reported an immune-mediated mechanism that is related to liver toxicity induced by oxicams and coxibs.
(§3) The yeast expression plasmids pGADT7 and pGBKT7 were from Clontech (Palo Alto, CA). Human FXRα-LBD (amino acids 200–473) was subcloned into vector pGBKT-7 using NdeI and BamHI restrict enzyme sites. The primers used for PCR amplification were listed as follows: FXRα-LBD (sense) 5′-[…]-3′, (anti-sense) 5′-[…]-3′. The combination plasmid pGADT7-SRC1 was prepared as described previously. The luciferase reporter plasmid pGL3-FXRE-Luc was generously donated by Dr. Majlis Hermansson (AstraZeneca R&D Mölndal, Sweden).
(§4) A yeast two-hybrid system for FXRα was constructed by yeast co-transformation with pGBKT7-FXR LBD and pGADT7-SRC1 according to manufacturer's protocols. […] 24 h later, we harvested the yeast cells and analyzed α-galactosidase activity using p-nitrophenyl α-D-galactopyranoside as the substrate.

[4] = molecular target: T1, Farnesoid X Receptor (FXR); test: Yeast two-hybrid assay, FXR antagonist testing (compounds plus 10 μM CDCA); format: cell-based; conditions: for IC50: hFXR-LBD/SRC1, determined if inhibition at 10 μM > 50%
Excerpt: as §2, §3, §4

[5] = tested on: SHP; test: qRT-PCR of FXR target gene SHP in HepG2 cells
Experimental: The mRNA levels of the FXR target genes were quantified by qRT-PCR.
The data were carried out in at least three independent experiments.
HepG2 cells were cultured at 37°C in DMEM media supplemented with 10% FBS. And then cells were seeded into 6-well plates and grew to 80–90% confluence. After incubation with the test compounds for 24 h, cells were harvested and total RNA was isolated using Trizol reagent. The first single-strand cDNA was synthesized using reverse transcriptase kit. The qRT-PCR was performed using Bio-Rad CFX96^TM real time PCR system according to the manufacturer's instruction with specific primers for the FXR target gene SHP (forward 5′-[sequence]-3′, reverse 5′-[sequence]-3′), CYP7A1 (forward 5′- [sequence]-3′, reverse 5′- [sequence]-3′) for detection of the transcripts. Transcription levels were normalized to GAPDH mRNA levels (forward 5′- [sequence]-3′, reverse 5′- [sequence]-3′). The relative RNA quantities were calculated using the comparative threshold cycles (Ct) method. The Ct for the SHP, CYP7A1 and GAPDH signals were determined in triplicate experiments.

| FXR activation (10 μM) [3] | inhibition at 10 µM [4] | IC50 ([4]; yeast two hybrid) | Structure (SMILES) | also measured |
| --- | --- | --- | --- | --- |
|  |  |  | C[C@H](CCC(=O)O)[C@H]1CC[C@H]2[C@@H]3[C@H](O)C[C@@H]4C[C@H](O)CC[C@]4(C)[C@H]3CC[C@]12C [CDCA, chenodeoxycholic acid] | effect on indomethacin-induced STAT3 activation ([1]; CDCA pretreatment): suppresses indomethacin-induced STAT3 activation; caspase9 levels on co-treatment with indomethacin ([2]; co-treated with indomethacin and CDCA): substantially attenuated back to the normal level |
| 1.31 | 93.3% | 8.48 µM | O=C(O)c1cc(-c2ccc(F)cc2F)ccc1O [Diflunisal] |  |
|  |  |  | COc1ccc2c(c1)c(CC(=O)O)c(C)n2C(=O)c1ccc(Cl)cc1 [Indomethacin] | STAT3 phosphorylation level ([1]; western blot): significantly increases the STAT3 phosphorylation level; caspase9 expression ([2]; western blot): significantly stimulates caspase9 expression in a dose-dependent manner; biological activity on genes SHP and CYP7A1 compared with ibuprofen [5]: higher biological activity than ibuprofen |
| 0.99 | 91.9% | 0.7 µM | CCCCC1C(=O)N(c2ccccc2)N(c2ccccc2)C1=O [Phenylbutazone] | FXR antagonist potency compared with guggulsterones (GS) ([4]; yeast two hybrid): more potent FXR antagonist than guggulsterones |
| 1.13 | 30.7% | > 25 µM | CN1C(C(=O)Nc2ccccn2)=C(O)c2ccccc2S1(=O)=O [Piroxicam] |  |
| 1.18 | 39.9% | > 25 µM | CS(=O)(=O)c1ccc(C2=C(c3ccccc3)C(=O)OC2)cc1 [Rofecoxib] |  |
